14 compounds from ChEMBL document CHEMBL5465560, “Selectivity Literature for EUbOPEN Chemogenomic Library” (2024) can be followed below.

In assay [1] the target is Insulin-like growth factor 1 receptor (Homo sapiens, UniProt P08069). As to conditions: at 10 µM.
For assay [2], the target named is Serine/threonine-protein kinase tousled-like 2 (Homo sapiens) (UniProt Q86UE8). As to conditions: at 10 µM.
Assay [3] addresses Calcium/calmodulin-dependent protein kinase type II subunit delta (Homo sapiens) (UniProt Q13557). Description: Selectivity interaction (Kinase panel (DSF assay)) EUB0001558a CAMK2D.
The target in assay [4] is Insulin receptor-related protein (Homo sapiens) (UniProt P14616). As to the kind of experiment: Selectivity interaction (Ambit KINOMEscan and KiNATiv profiling in Jurkat cells) EUB0000090b INSRR. Format: cell-based. Conditions: at 1 µM.
Sequence of Insulin receptor-related protein (Homo sapiens) (P14616 27-742 limits assumed): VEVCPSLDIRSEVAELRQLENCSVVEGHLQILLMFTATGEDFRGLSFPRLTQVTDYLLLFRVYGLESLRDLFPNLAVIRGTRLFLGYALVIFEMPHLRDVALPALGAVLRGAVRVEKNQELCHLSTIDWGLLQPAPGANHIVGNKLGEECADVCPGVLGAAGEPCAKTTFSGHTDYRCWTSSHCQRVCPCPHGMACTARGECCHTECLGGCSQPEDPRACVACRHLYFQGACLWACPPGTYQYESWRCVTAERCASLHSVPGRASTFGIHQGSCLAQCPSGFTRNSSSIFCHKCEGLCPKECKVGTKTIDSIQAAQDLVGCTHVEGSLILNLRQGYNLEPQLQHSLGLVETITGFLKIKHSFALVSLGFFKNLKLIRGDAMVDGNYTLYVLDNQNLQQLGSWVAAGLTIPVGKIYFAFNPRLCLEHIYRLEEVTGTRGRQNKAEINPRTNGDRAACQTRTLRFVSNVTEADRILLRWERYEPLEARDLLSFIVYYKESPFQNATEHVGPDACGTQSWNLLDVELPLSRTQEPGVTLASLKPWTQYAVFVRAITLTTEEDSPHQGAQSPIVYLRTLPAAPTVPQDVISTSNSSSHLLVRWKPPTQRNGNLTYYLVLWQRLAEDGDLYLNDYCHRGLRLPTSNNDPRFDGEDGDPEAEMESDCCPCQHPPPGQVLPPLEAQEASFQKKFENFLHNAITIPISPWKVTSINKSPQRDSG
Sequence of Insulin receptor-related protein (Homo sapiens) (P14616 747-1297 limits assumed): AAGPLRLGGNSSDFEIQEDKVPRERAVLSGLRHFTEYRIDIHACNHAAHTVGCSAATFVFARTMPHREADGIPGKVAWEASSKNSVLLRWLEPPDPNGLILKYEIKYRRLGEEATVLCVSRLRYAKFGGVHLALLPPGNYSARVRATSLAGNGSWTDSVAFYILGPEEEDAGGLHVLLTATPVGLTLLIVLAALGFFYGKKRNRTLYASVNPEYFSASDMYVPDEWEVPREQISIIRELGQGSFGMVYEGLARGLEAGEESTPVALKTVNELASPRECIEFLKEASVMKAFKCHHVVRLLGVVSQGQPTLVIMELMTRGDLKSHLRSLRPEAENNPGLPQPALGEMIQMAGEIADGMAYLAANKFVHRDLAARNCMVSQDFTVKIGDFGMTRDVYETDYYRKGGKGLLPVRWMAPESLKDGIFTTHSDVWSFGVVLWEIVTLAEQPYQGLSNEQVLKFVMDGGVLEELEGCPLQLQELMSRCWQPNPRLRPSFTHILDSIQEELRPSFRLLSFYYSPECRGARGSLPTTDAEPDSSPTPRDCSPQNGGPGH
For assay [5] the target is unchanged. As to conditions: at 10 µM.
Assay [6] has as its target Mitogen-activated protein kinase 1 (Homo sapiens, UniProt P28482). Conditions: at 10 µM.
The target of assay [7] is Serine/threonine-protein kinase pim-3 (Homo sapiens) (UniProt Q86V86). Description: Selectivity interaction (KinomeScan (DiscoverX)) EUB0001079a PIM3. As to conditions: at 1 µM.
The target in assay [8] is T1, Serine/threonine-protein kinase haspin (Homo sapiens) (UniProt Q8TF76).
T1 sequence (whole entry): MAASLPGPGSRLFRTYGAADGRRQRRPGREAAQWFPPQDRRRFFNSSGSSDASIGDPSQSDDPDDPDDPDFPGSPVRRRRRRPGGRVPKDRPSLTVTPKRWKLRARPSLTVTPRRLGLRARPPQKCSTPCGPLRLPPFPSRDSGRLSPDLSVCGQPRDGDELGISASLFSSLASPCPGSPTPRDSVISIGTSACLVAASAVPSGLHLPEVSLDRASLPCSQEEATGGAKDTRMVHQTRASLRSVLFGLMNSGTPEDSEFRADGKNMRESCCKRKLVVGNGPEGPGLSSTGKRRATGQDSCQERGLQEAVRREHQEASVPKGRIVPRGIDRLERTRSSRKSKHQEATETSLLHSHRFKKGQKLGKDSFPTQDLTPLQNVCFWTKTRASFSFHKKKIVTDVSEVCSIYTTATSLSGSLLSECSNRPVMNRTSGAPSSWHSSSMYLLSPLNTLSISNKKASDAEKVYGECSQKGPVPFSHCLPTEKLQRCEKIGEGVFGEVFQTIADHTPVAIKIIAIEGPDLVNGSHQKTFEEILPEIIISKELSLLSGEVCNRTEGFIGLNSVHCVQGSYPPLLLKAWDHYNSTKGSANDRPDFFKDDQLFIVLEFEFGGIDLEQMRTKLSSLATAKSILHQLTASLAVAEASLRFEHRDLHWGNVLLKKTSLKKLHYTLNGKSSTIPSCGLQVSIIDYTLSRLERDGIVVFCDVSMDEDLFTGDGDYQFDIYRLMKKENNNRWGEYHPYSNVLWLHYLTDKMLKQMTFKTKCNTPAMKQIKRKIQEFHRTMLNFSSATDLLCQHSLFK
As to the kind of experiment: Selectivity interaction (KinomeScan (DiscoverX)) EUB0000695a GSG2. Conditions: at 100 nM.

In assay [9] the target is Leukocyte tyrosine kinase receptor (Homo sapiens, UniProt P29376). Description: Selectivity interaction (KinomeScan (DiscoverX)) EUB0000045b LTK.
Sequence of Leukocyte tyrosine kinase receptor (P29376 whole entry): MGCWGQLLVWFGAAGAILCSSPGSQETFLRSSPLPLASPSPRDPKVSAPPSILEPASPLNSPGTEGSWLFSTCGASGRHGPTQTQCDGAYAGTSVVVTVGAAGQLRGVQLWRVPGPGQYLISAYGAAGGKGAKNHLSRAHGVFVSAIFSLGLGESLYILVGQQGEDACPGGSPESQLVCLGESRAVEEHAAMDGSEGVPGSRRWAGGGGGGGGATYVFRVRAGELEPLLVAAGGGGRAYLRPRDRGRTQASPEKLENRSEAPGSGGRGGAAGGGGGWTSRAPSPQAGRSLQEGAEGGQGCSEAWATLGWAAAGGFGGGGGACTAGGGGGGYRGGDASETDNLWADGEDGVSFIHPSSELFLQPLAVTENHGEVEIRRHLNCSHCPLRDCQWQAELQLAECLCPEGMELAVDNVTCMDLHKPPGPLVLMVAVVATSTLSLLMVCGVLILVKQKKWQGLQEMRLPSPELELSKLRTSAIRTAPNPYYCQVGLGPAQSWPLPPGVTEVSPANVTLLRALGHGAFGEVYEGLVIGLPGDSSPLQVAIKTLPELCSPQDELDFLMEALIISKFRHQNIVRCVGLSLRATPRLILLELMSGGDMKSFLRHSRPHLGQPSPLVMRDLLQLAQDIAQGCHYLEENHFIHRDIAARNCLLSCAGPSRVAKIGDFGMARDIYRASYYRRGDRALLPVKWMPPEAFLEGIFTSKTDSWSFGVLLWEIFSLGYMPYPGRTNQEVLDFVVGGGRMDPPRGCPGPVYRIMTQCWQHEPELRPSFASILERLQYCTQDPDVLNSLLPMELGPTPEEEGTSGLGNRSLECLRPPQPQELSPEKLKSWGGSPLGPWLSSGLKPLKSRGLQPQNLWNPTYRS
For assay [10], the target named is CDK4/Cyclin D3 (Homo sapiens) (UniProt P11802+P30281). Description: (§1) Selectivity interaction (KinomeScan (DiscoverX)) EUB0000666a CDK4. As to conditions: at 10 µM. The assay is classed as protein-complex assay.
In assay [11] the target is Cyclin-dependent kinase 4/cyclin D1 (Homo sapiens) (UniProt P11802+P24385). The assay is described as §1. As to conditions: at 10 µM. The assay is classed as protein-complex assay.
In assay [12] the target is Ribosomal protein S6 kinase alpha-4 (Homo sapiens) (UniProt O75676). As to the kind of experiment: Selectivity interaction (KinomeScan (DiscoverX)) EUB0000666a RPS6KA4. Conditions: at 10 µM.
In assay [13] the target is Dual specificity mitogen-activated protein kinase kinase 1 (Homo sapiens, UniProt Q02750). As to the kind of experiment: Selectivity interaction (SelectScreen profiling (Invitrogen)) EUB0000607a MAP2K1. Conditions: at 2 µM.
Sequence of Dual specificity mitogen-activated protein kinase kinase 1 (Q02750 whole entry): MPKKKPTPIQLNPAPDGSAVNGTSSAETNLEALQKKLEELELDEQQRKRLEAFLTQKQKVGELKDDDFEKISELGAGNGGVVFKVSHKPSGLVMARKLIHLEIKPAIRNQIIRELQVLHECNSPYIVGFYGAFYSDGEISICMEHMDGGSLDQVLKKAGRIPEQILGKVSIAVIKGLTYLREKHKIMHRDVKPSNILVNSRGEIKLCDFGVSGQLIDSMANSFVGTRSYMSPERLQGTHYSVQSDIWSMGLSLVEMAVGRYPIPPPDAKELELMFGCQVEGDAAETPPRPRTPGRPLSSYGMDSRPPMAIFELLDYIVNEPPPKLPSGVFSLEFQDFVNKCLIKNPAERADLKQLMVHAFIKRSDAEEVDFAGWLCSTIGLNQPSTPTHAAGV
Assay [14] concerns the target Serine/threonine-protein kinase Nek4 (Homo sapiens) (UniProt P51957). As to the kind of experiment: Selectivity interaction (KinomeScan (DiscoverX)) EUB0000607a NEK4. Conditions: at 10 µM.
Assay [15] deals with Phosphatidylinositol 4-phosphate 3-kinase C2 domain-containing subunit alpha (Homo sapiens) (UniProt O00443). As to the kind of experiment: Selectivity interaction (Kinase panel (Invitrogen)) EUB0000639a PIK3C2A. As to conditions: at 200 nM.
Assay [16] addresses Delta-type opioid receptor (Homo sapiens, UniProt P41143). Description: Selectivity interaction (GPCR panel (PDSP screen)) EUB0000311b OPRD1. Conditions: at 10 µM.
The target in assay [17] is Tyrosine-protein kinase Fer (Homo sapiens) (UniProt P16591). As to the kind of experiment: Selectivity interaction (KinomeScan (DiscoverX)) EUB0001619a FER. Conditions: at 1 µM.
The target of assay [18] is Mitogen-activated protein kinase 7 (Homo sapiens) (UniProt Q13164). As to the kind of experiment: Selectivity interaction (ActivX KiNativ screen (ex vivo kinase selectivity in human PBMCs)) EUB0001619a MAPK7. As to conditions: PBMC, at 1 µM. Format: cell-based.
For assay [19], the target named is Cyclin-dependent kinase 17 (Homo sapiens) (UniProt Q00537). As to the kind of experiment: Selectivity interaction (Kinase panel (KiNativ target engagement assay in Jurkat cells)) EUB0001635a CDK17. The assay is classed as cell-based. As to conditions: Selectivity number of off-targets 0.0, Selectivity number of targets 233.0, Source Knowledge https://www.sciencedirect.com/science/article/pii/S2451945619300674?via%3Dihub, at 1 µM.

The target in assay [20] is T2, Dual specificity mitogen-activated protein kinase kinase 3 (Homo sapiens) (UniProt P46734).
T2 sequence (whole entry): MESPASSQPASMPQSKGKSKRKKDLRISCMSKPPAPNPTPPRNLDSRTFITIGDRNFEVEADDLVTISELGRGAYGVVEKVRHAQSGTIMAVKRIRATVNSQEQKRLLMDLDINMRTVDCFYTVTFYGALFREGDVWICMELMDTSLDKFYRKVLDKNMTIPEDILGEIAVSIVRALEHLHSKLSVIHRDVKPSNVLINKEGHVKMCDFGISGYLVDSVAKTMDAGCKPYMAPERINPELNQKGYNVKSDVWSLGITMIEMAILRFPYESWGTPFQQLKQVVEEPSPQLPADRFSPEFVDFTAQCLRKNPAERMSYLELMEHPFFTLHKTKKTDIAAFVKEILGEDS
Description: Selectivity interaction (KinomeScan (DiscoverX)) EUB0000618a MAP2K3. Conditions: at 10 µM.

Sequence of Insulin-like growth factor 1 receptor (P08069 31-736 limits assumed): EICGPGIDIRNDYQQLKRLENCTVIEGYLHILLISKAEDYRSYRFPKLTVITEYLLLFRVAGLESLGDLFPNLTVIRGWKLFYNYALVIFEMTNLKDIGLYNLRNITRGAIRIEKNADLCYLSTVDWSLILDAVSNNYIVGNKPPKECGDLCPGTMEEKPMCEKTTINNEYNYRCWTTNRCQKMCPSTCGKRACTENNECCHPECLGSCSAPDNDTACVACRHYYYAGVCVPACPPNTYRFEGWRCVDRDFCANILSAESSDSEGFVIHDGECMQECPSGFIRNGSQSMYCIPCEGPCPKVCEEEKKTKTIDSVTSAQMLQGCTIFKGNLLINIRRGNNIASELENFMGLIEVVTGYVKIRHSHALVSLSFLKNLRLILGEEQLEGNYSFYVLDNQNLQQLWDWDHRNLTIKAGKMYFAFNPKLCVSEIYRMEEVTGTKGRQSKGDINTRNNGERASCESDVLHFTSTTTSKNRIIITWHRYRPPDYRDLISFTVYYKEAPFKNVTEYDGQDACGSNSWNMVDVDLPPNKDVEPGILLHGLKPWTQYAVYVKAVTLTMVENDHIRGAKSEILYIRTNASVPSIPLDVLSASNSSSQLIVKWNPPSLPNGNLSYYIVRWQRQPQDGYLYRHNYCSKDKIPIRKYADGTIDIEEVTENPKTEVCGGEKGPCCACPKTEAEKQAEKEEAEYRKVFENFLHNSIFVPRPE
Sequence of Insulin-like growth factor 1 receptor (P08069 741-1367 limits assumed): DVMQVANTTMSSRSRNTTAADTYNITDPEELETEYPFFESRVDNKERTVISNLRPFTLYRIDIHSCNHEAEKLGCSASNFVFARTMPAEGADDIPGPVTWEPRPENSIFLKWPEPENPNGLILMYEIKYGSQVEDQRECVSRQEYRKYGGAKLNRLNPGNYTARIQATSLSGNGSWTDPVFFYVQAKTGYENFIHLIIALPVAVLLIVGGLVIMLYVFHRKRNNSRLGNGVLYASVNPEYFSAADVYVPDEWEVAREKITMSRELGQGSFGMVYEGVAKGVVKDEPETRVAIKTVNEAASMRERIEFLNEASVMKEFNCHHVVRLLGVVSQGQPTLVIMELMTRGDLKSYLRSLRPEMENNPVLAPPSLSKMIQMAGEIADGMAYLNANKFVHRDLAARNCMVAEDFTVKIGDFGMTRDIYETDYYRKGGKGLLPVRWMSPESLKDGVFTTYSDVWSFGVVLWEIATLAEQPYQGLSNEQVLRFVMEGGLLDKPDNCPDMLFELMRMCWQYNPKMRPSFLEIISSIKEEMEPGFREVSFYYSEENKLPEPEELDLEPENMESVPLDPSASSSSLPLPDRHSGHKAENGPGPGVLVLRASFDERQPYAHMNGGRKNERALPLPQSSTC
Sequence of Serine/threonine-protein kinase tousled-like 2 (Homo sapiens) (Q86UE8 whole entry, looked up): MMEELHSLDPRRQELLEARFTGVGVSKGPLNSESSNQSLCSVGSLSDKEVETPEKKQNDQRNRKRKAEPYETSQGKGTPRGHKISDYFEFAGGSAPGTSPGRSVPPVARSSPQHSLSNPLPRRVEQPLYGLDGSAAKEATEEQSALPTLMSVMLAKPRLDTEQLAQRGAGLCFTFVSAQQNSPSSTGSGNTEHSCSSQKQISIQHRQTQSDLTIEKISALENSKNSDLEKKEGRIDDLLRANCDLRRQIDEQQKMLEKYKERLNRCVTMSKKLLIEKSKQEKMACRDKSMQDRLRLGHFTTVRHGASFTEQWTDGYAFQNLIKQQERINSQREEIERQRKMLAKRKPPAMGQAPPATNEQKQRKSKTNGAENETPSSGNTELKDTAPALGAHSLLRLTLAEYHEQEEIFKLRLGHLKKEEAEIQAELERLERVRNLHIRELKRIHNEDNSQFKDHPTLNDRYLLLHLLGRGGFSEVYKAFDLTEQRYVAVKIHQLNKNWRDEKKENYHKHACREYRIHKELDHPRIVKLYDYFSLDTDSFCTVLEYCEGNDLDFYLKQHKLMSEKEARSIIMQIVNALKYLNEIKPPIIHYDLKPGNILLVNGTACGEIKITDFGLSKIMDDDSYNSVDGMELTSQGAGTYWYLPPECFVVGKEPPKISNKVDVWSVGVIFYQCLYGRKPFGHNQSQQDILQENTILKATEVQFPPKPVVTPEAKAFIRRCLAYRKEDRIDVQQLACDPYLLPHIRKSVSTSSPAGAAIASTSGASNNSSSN
Sequence of Delta-type opioid receptor (P41143 whole entry): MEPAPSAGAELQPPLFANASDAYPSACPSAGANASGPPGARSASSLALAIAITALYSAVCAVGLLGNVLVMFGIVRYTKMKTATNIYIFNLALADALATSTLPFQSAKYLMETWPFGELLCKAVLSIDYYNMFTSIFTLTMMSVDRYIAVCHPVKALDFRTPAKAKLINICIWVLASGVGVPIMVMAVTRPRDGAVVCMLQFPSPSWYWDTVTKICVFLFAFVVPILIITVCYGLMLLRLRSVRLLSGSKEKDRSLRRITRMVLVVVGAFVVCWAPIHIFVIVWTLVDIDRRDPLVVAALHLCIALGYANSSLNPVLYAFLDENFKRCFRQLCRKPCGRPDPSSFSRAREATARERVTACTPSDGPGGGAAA

As to `Cc1cc([C@@H](C)Nc2ccccc2C(=O)O)c2nc(N3CCOCC3)cc(=O)n2c1` [AZD-6482], the % of control is 100% in assay [1] and 88% in [2]. As to `CC(C)(O)[C@H](F)CN1Cc2cc(NC(=O)c3cnn4cccnc34)c(N3CCOCC3)cc2C1=O`, the dTM in [3] is 0.3 K. In assay [4], `CN(C)C/C=C/C(=O)Nc1ccc(C(=O)N2CCCC(Nc3ncc(Cl)c(-c4c[nH]c5ccccc45)n3)C2)cc1` (stereo unspecified) returned a % of control of 100%. Turning to `CCN(CC)CCCCNc1ncc2cc(-c3cc(OC)cc(OC)c3)c(NC(=O)NC(C)(C)C)nc2n1`, the % of control in [5] and in [6] was 100% throughout. Compound `Nc1cnc(N2CCc3cc(S(=O)(=O)Nc4c(F)cc(Cl)cc4F)cc(N4CCCC4=O)c32)nc1` [TP-020n] displayed a % of control in assay [7] of 98%.

`Cc1cc(F)c(C(=O)Nc2cccc(-c3nncn3C(C)C)n2)cc1-n1cnc(C2CC2)c1` yielded a % of control in [8] of 100%.

On to `C=CC(=O)Nc1cc(-n2c(=O)ccc3cnc4ccc(-c5ccc(NS(C)(=O)=O)cc5)cc4c32)ccc1C`, for which the % of control in assay [9] (at 1 µM) and in [9] (at 10 µM) was 100% each time.

On to `O=C(NOC[C@H](O)CO)c1ccc(F)c(F)c1Nc1ccc(I)cc1F`, for which the % of control was 84% in assay [10], 93% in assay [11] and 86% in [12].

For the compound `CNC(=O)Nc1ccc(-c2nc(N3CC4CCC(C3)O4)c3cnn(C4CCC5(CC4)OCCO5)c3n2)cc1`, in [13], the % of inhibition was 3%. Further, the % of control in assay [14] is 82%. For `CC[C@@H]1[C@H](F)C(=O)N[C@@H]1COc1nccc2cc(C(N)=O)c(OC)cc12` [ZIMLOVISERTIB], the % of inhibition in assay [15] is -2.62%. For the compound `CCc1ccccc1C(=O)Nc1n[nH]c2c(C)c(F)c(C3C(C#N)=C(C)N(C)C(C)=C3C#N)cc12` [BAY-3827], the % of inhibition in assay [16] was determined as 20.5%. For `N#Cc1cccc(-c2c[nH]c3ncnc(N4CCOCC4)c23)c1`, in [17], the % of control came out at 84%. The % of inhibition in assay [18] is -6%. As for `C=CC(=O)Nc1ccc(C(=O)Nc2[nH]nc3c2CN(C(=O)N[C@H](CN(C)C)c2ccccc2)C3(C)C)cc1`, in [19], the % of engagement stood at 12.8%. On to `O[C@H]1CC[C@H](Nc2ncc3nc(Nc4c(F)cc(F)cc4F)n([C@H]4CCOC4)c3n2)CC1`, for which the % of control in assay [20] was 43%.
